Results as given in patent US20240208912A1 (Mirati Therapeutics, Inc., priority 2021, published 2024).
Read-outs that look alike come from different tables or passages of the source.

Legend:
[1] = test system: HCT116 homozygous MTAP knockout cells; assay: Proliferation assay (CellTiter-Glo, 10 days) in HCT116 homozygous MTAP knockout cells; assay type: cell-based; conditions: CellTiter-Glo after 10 days of treatment, read-out: Proliferation IC50 (nM) HCT116 MTAP_KO
Description: HCT116 cells were genetically engineered to knock out the function of both MTAP alleles using a CRISPR/Cas9 system and an sgRNA targeting the MTAP gene. Following Cas9/MTAP sgRNA transduction, clones were screened to confirm that each allele of the MTAP gene had been inactivated (i.e., homozygous MTAP knock out) creating an MTAP-deficient cell.
Control samples were analyzed in parallel.
Briefly, on Day 0, 250 HCT116 parental or HCT116 homozygous MTAP knockout cell were seeded in 96 well plates in McCoy's 5A supplemented with […] fetal bovine serum and pen/strep and the cells were incubated overnight at 37° C. plus 5% CO2.
The following day, cells were treated with DMSO vehicle control or a dose response of PRMT5 inhibitors and incubated at 37 C plus 5% CO2 for five days. On Day 6, the cells were trypsinized and split 1:10 into new 96-well plates with fresh medium containing the same concentration of PRMT5 inhibitor and incubated for an additional 5 days at 37° C. plus 5% CO^2.
On Day 11, the viability of the cells was measured using a CTG assay kit (CellTiter-Glo; Promega cat.no G7573) in accordance with the manufacturer's instructions. The IC50 values for each compound after 10 days of treatment were calculated using GraphPad PRISM software.

PRMT5/MEP50 complex = biological target: T1, PRMT5/MEP50 complex (Homo sapiens, UniProt O14744); assay: PRMT5:MEP50 HotSpot Assay (full-length histone H2A substrate, plus and minus MTA); assay type: biochemical
T1 construct: purchased Reaction Biology Corporation
Description: The PRMT5 inhibitory activity of compounds of the present invention was determined using either a PRMT5:MEP50 FlashPlate Assay (Reaction Biology Corporation) or a PRMT5:MEP50 HotSpot Assay (Reaction Biology Corporation).
The assay uses recombinant full-length hi stone H2A as the PRMT5 substrate. […] The reaction was stopped and transferred to filter paper for detection. The amount of tritiated H2A in each sample was determined using a scintillation counter.

[2] = IC50 + 2 μM MTA, in the presence of 2 μM MTA

T1 sequence (O14744 2-637 limits assumed): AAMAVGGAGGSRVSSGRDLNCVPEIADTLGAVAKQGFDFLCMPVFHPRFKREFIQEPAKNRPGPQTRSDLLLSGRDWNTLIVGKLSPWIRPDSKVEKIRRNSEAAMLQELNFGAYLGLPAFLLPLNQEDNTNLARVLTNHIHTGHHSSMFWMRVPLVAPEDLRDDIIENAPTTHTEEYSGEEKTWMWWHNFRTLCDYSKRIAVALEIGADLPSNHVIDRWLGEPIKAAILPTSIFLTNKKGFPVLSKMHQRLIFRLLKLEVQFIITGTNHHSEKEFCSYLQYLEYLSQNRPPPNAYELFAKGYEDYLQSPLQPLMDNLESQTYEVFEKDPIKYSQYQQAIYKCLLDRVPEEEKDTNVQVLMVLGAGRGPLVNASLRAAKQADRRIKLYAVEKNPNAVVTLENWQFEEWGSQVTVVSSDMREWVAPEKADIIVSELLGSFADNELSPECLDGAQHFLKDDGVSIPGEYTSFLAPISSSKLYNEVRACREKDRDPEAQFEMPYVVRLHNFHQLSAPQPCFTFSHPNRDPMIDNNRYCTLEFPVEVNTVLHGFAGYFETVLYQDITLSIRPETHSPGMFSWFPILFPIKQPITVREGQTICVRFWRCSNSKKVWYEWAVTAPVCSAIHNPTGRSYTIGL
T1 sequence (Q9BQA1 2-342 partner limits assumed): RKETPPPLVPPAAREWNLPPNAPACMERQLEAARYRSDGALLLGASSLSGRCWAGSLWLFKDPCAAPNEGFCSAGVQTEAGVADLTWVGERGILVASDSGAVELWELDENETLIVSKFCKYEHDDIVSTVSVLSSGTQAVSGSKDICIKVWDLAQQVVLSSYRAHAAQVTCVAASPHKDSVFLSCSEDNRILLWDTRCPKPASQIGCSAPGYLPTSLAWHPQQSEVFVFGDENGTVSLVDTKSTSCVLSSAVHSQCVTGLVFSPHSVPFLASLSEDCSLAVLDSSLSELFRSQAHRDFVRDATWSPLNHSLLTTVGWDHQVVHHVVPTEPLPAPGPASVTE

| IC50 (PRMT5/MEP50 complex; [2]) [nM] | SMILES | further results |
| --- | --- | --- |
| – | Cc1c(F)c(-c2c(-c3ccc4c(=O)[nH]nc(CN)c4c3)cnn2C)c(C#N)c2cc(Cl)cnc12 (atropisomer, axis not shown; (M)) [Example 16-34, (M)-6-[4-[4-(aminomethyl)-1-oxo-2H-phthalazin-6-yl]-2-methyl-pyrazol-3-yl]-3-chloro-7-fluoro-8-methyl-quinoline-5-carbonitrile] | IC50 [1]: 20 nM |
| – | Cn1ncc(-c2ccc3c(=O)[nH]nc(CN)c3c2)c1-c1c(C#N)cc2cccnc2c1Cl (atropisomer, axis not shown; (M)) [Example 16-84, (M)-7-(4-(4-(aminomethyl)-1-oxo-1,2-dihydrophthalazin-6-yl)-1-methyl-1H-pyrazol-5-yl)-8-chloroquinoline-6-carbonitrile] | IC50 [1]: 123 nM |
| – | Cn1ncc(-c2ccc3c(=O)[nH]nc(CN)c3c2)c1-c1c(C#N)cc2ncccc2c1Cl (atropisomer, axis not shown; (M)) [Example 16-86, (M)-6-(4-(4-(aminomethyl)-1-oxo-1,2-dihydrophthalazin-6-yl)-1-methyl-1H-pyrazol-5-yl)-5-chloroquinoline-7-carbonitrile] | IC50 [1]: 183 nM |
| – | Cn1ncc(-c2ccc3c(=O)[nH]nc(CN)c3c2)c1-c1cccc2c1COCC2(C)O (atropisomer, axis not shown; (M)) [Example 16-103, (M)-4-(aminomethyl)-6-(5-(4-hydroxy-4-methylisochroman-8-yl)-1-methyl-1H-pyrazol-4-yl)phthalazin-1(2H)-one] | IC50 ([1]; Homo sapiens, HCT-116, 240 h): 4000 nM |
| – | Cc1c(F)c(-c2c(-c3ccc4c(=O)[nH]nc(CN)c4c3)cnn2C)c(C#N)c2cc(Cl)cnc12 (atropisomer, axis not shown; (P)) [Example 16-33] | IC50 [1]: 626 nM |
| – | Cn1ncc(-c2ccc3c(=O)[nH]nc(CN)c3c2)c1-c1c(C#N)cc2ncccc2c1Cl (atropisomer, axis not shown; (P)) [Example 16-85, (P)-6-(4-(4-(aminomethyl)-1-oxo-1,2-dihydrophthalazin-6-yl)-1-methyl-1H-pyrazol-5-yl)-5-chloroquinoline-7-carbonitrile] | IC50 [1]: 4380 nM |
| 92 | Cn1ncc(-c2ccc3c(=O)[nH]nc(CN)c3c2)c1-c1c(C(F)F)cc2ccccc2c1C#N (single isomer, unassigned) [Example 16-130, (M)-2-(4-(4-(aminomethyl)-1-oxo-1,2-dihydrophthalazin-6-yl)-1-methyl-1H-pyrazol-5-yl)-3-(difluoromethyl)-1-naphthonitrile] | – |
| – | Cn1ncc(-c2ccc3c(=O)[nH]nc(CN)c3c2)c1-c1ccccc1C#N [Example 4-100, 2-(4-(4-(aminomethyl)-1-oxo-1,2-dihydrophthalazin-6-yl)-1-methyl-1H-pyrazol-5-yl)benzonitrile] | IC50 (PRMT5/MEP50 complex; in the absence of MTA, read-out: IC50): > 10000 nM |
| 3820 | N#Cc1ccccc1-n1c(-c2ccc3c(=O)[nH]nc(CN)c3c2)cnc1CO [Example 4-194, 2-(5-(4-(aminomethyl)-1-oxo-1,2-dihydrophthalazin-6-yl)-2-(hydroxymethyl)-1H-imidazol-1-yl)benzonitrile] | – |
| 1000 | Cn1ncc(-c2ccc3c(=O)[nH]nc(CN)c3c2)c1-c1ccc2n1C(=O)CCC2 [Example 4-278, 4-(aminomethyl)-6-(1-methyl-5-(5-oxo-5,6,7,8-tetrahydroindolizin-3-yl)-1H-pyrazol-4-yl)phthalazin-1(2H)-one] | – |
| 1480 | Cc1ncc(-c2ccc3c(=O)[nH]nc(CN)c3c2)n1-c1sc2ccccc2c1C#N [Example 4-288, 2-(5-(4-(aminomethyl)-1-oxo-1,2-dihydrophthalazin-6-yl)-2-methyl-1H-imidazol-1-yl)benzo[b]thiophene-3-carbonitrile] | – |
| 4080 | Cn1ncc(-c2ccc3c(=O)[nH]nc(CN)c3c2)c1N1CCCCC1C#N (stereo not shown) [Example 4-289, 1-(4-(4-(aminomethyl)-1-oxo-1,2-dihydrophthalazin-6-yl)-1-methyl-1H-pyrazol-5-yl)piperidine-2-carbonitrile] | – |
| 168 | Cn1ncc(-c2ccc3c(=O)[nH]nc(CN)c3c2)c1N1CCCC1C#N (stereo not shown) [Example 4-290, 1-(4-(4-(aminomethyl)-1-oxo-1,2-dihydrophthalazin-6-yl)-1-methyl-1H-pyrazol-5-yl)pyrrolidine-2-carbonitrile] | – |
| 737 | Cn1nnc(-c2ccc3c(=O)[nH]nc(CN)c3c2)c1-c1sc2ccccc2c1C#N [Example 4-291, 2-(4-(4-(aminomethyl)-1-oxo-1,2-dihydrophthalazin-6-yl)-1-methy1-1H-1,2,3-triazol-5-yl)benzo[b]thiophene-3-carbonitrile] | – |
| > 10000 | Cn1ncc(-c2ccc3c(=O)[nH]nc([C@H](N)C(F)F)c3c2)c1-c1ccc2ccccc2c1C#N [Example 9-6, 2-[4-[4-[(1S)-1-amino-2,2-difluoro-ethyl]-1-oxo-2H-phthalazin-6-yl]-2-methyl-pyrazol-3-yl]naphthalene-1-carbonitrile] | – |
| 1270 | Cn1ncc(-c2cc(C(=O)C(F)F)c3c(=O)[nH]nc(CN)c3c2)c1-c1sc2ccccc2c1C#N [Example 15-9, 2-(4-(4-(aminomethyl)-8-(2,2-difluoro-acetyl)-1-oxo-1,2-dihydrophthalazin-6-yl)--methyl-1H-pyrazol-5-yl)benzo[b]-thiophene-3-carbonitrile] | – |
| 1310 | Cn1ncc(-c2cnc3c(=O)[nH]nc(CN)c3c2)c1-c1sc2ccccc2c1C#N [Example 17-4, 2-(4-(5-(aminomethyl)-8-oxo-7,8-dihydropyrido[2,3-d]pyridazin-3-yl)-1-methyl-1H-pyrazol-5-yl)benzo[b]thiophene-3-carbonitrile] | – |
| 7510 | COc1nnc(CN)c2cc(-c3cnn(C)c3-c3sc4ccccc4c3C#N)ccc12 [Example 17-6] | – |
| 2310 | Cn1ncc(-c2cc3c(CN)n[nH]c(=O)c3s2)c1-c1ccc2ccccc2c1C#N [Example 17-7, 2-(4-(4-(aminomethyl)-7-oxo-6,7-dihydrothieno[2,3-d]pyridazin-2-yl)-1-methyl-1H-pyrazol-5-yl)-1-naphthonitrile] | – |
| 1270 | C[C@@H](N)c1n[nH]c(=O)c2ccc(-c3cnn(C)c3-c3ccc4ccccc4c3C#N)nc12 [Example 20-1] | – |
| 200 | C[C@H](N)c1n[nH]c(=O)c2ccc(-c3cnn(C)c3-c3ccc4ccccc4c3C#N)nc12 [Example 20-2] | – |
| 1030 | Cn1ncc(-c2ccc3c(c2)C(CN)NC3=O)c1-c1sc2ccccc2c1C#N (stereo not shown) [Example 20-4, 2-(4-(3-(aminomethyl)-1-oxoisoindolin-5-yl)-1-methyl-1H-pyrazol-5-yl)benzo[b]thiophene-3-carbonitrile] | – |
| 635 | Cn1ncc(-c2ccc3c(c2)C(CCN)NC3=O)c1-c1sc2ccccc2c1C#N (stereo not shown) [Example 20-5, 2-[4-[3-(2-aminoethyl)-1-oxo-isoindolin-5-yl]-2-methyl-pyrazol-3-yl]benzothiophene-3-carbonitrile] | – |
| 2250 | Cc1ncn(-c2ccc3c(=O)[nH]nc(CN)c3c2)c1-c1sc2ccccc2c1C#N [Example 20-6, 2-[3-[4-(aminomethyl)-1-oxo-2H-phthalazin-6-yl]-5-methyl-imidazol-4-yl]benzothiophene-3-carbonitrile] | – |
| > 10000 | Cn1ncc(-c2ccc3c(c2)C(C)(N)CNC3=O)c1-c1sc2ccccc2c1C#N (stereo not shown) [Example 20-7, 2-(4-(4-amino-4-methyl-1-oxo-1,2,3,4-tetrahydroisoquinolin-6-yl)-1-methyl-1H-pyrazol-5-yl)benzo[b]thiophene-3-carbonitrile] | – |
